One test deals with T1, cKIT (Homo sapiens, UniProt P10721).
T1 construct: The kinase domain of cKIT was assayed in 50 mM Hepes; purchased Upstate 14-559
Briefly: cKIT kinase in vitro biochemical assay (alphascreen). Particulars: tested at about 1 μM; read-out: CKIT percent inhibition. The method, then: (§1) The IC50 values for the inhibition of RTKs were determined in the alphascreen format measuring the inhibition by compound of phosphate transfer to a substrate by the respective enzyme. Briefly, the respective RTK domain purchased as human recombinant protein (cKIT Upstate #14-559, PDGFRb Invitrogen #P3082) were incubated with serial dilutions of compound in the presence of substrate and ATP concentrations within 3 times the Km of the enzyme.
(§2) The kinase domain of cKIT was assayed in 50 mM Hepes, pH=7.5, 5 mM MgCl2, 10 mM MnCl2, 1 mM DTT, 0.1% BSA with 0.06 uM biotinylated peptide substrate (GGLFDDPSYVNVQNL-NH2) and 15 uM ATP (ATP KM apparent=15 uM). The kinase domain of PDGFRβ was assayed in 50 mM Hepes, pH=7.5, 20 mM MgCl2, 1 mM DTT, 0.1% BSA with 0.1 uM biotinylated peptide substrate (GGLFDDPSYVNVQNL-NH2) and 10 uM ATP (ATP KM apparent=25 uM). Reactions were incubated at room temperature for 3 to 4 hr and stopped with buffer (20 mM EDTA, 0.01% Tween-20 for both PDGFRb and cKIT). Alphascreen PY20 beads were added to the stopped cKIT reactions and PY20 Ab/Protein A Alphascreen beads were added to the PDGFRβ stopped reactions. Both reactions were incubated overnight and read on the Alphascreen reader. The concentration of compound for 50% inhibition (IC50) was calculated employing non-linear regression using XL-Fit data analysis software. As a control compound, staurosporine is run in every assay and a Z′>0.5 is required to validate results.
On the technique in general: Bead proximity is the source of the signal in Alpha formats.

The target in test [1] is T2, cytoplasmic domain of the human CSF-1R (Homo sapiens, UniProt P07333).
T2 construct: Recombinant protein corresponding to the cytoplasmic domain of the human CSF-1R; purchased Invitrogen Corporation, Carlsbad, Calif; PV3249
T2 sequence (P07333 539-972 limits assumed): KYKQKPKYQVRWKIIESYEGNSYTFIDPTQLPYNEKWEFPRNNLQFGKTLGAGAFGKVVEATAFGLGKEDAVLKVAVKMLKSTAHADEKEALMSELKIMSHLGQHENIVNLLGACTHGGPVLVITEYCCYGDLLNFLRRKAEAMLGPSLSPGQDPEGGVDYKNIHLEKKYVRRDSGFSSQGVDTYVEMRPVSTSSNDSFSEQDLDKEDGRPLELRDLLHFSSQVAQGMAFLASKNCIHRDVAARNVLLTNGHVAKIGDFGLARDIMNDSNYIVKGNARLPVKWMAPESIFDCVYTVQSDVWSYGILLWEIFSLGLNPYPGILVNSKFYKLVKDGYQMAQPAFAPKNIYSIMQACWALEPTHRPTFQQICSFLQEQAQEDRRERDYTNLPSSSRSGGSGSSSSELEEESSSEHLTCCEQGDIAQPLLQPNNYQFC
Nature of the test: In vitro kinase assay for CSF-1R (AlphaScreen). It is filed as biochemical. Particulars: tested at about 1 μM; read-out: CSF1RK 1 percent inhibition. The procedure: The kinase activity of various protein tyrosine kinases can be measured by providing ATP and a suitable peptide or protein tyrosine-containing substrate, and assaying the transfer of phosphate moiety to the tyrosine residue. Recombinant protein corresponding to the cytoplasmic domain of the human CSF-1R was purchased from Invitrogen Corporation, Carlsbad, Calif. U.S.A. (#PV3249). For each assay, test compounds were serially diluted, starting at 25 μM with 3 fold dilutions, in DMSO in 384 well plates then mixed with an appropriate kinase reaction buffer consisting of 50 mM Hepes, 5 mM MgCl2, 10 mM MnCl2, 0.1% BSA, pH 7.5, 1.0 mM dithiothreitol, 0.01% Tween 80 plus 1 μM ATP. Kinase protein and an appropriate biotinylated peptide substrate at 50 nM were added to give a final volume of 20 μL, reactions were incubated for 2 hours at room temperature and stopped by the addition of 10 μL of 45 mM EDTA, 50 mM Hepes pH 7.5. Added to the stopped reaction mix was 30 μL of PT66 Alphascreen beads (Perkin Elmer, Boston, Mass., U.S.A.). The reaction was incubated overnight and read on the Envision (Perkin Elmer). Phosphorylated peptide product was measured with the AlphaScreen system (Perkin Elmer) using acceptor beads coated with anti-phosphotyrosine antibody PT66 and donor beads coated with streptavidin that emit a fluorescent signal at the 520-620 nm emission wave length if in close proximity. The concentration of each compound for 50% inhibition (IC50) was calculated by non-linear regression using XL Fit data analysis software.
CSF-1R kinase was assayed in 50 mM Hepes pH 7.0, 5 mM MgCl2, 10 mM MnCl2, 1 mM DTT, 1 mg/mL BSA, 1.0 μM ATP, and 0.05 μM biotin-GGGGRPRAATF-NH2 (SEQ ID NO:1) peptide substrate. CSF-1R kinase was added at final concentration of 4 nM.

Another test has as its target T3, PDGFRb (Homo sapiens, UniProt P09619).
T3 construct: The kinase domain of PDGFRβ was assayed in 50 mM Hepes; purchased Invitrogen P3082
Nature of the test: PDGFRb kinase in vitro biochemical assay (alphascreen). Particulars: tested at about 1 μM; read-out: PDGF RK BETA percent inhibition. The method, then:
as §1, §2

T3 sequence (P09619 600-962 limits assumed): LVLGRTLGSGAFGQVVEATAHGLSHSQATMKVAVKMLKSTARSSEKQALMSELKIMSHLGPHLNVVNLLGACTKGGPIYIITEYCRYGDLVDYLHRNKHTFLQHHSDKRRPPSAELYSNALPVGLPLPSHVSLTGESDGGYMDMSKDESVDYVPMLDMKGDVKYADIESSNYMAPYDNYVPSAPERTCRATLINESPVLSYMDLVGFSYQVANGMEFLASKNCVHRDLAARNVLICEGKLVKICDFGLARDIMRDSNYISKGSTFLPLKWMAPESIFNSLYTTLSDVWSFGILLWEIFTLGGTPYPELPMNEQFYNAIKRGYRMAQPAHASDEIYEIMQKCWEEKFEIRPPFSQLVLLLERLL
T1 sequence (P10721 589-937 limits assumed): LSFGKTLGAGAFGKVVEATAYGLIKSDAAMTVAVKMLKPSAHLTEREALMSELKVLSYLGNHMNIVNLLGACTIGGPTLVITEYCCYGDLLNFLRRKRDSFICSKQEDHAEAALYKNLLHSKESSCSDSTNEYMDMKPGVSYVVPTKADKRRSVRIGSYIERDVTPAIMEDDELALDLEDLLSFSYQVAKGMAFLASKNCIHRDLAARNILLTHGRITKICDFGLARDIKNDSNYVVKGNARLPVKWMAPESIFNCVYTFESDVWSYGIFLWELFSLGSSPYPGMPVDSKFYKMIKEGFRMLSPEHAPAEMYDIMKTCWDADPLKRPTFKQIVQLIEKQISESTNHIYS

As for `Clc1cc(Oc2ccc3nc(NCC4CCCCC4)sc3c2)ncn1` [Compound 2, 6-(6-chloropyrimidin-4-yloxy)-N-(cyclohexylmethyl)benzo[d]thiazol-2-amine], the inhibition (in general, the change of the read-out against control, counted positive when it falls) at 1 µM at cKIT turned out to be 11%; in test [1], 78%; at PDGFRb, 6%.

On to `Nc1cc(Oc2ccc3nc(NCC4CCCCC4)sc3c2)nc(N)n1` [Compound 3, 6-(2-(cyclohexylmethylamino)benzo [d]thiazol-6-yloxy) pyrimidine-2,4-diamine], for which the figures for the inhibition at 1 µM (at cKIT; in test [1]; on PDGFRb) were 23%, 19% and 0%, respectively.

As to `Clc1nccc(Oc2ccc3nc(NCC4CCCCC4)sc3c2)n1` [Compound 4, 6-(2-chloropyrimidin-4-yloxy)-N-(cyclohexylmethyl) benzo[d]thiazol-2-amine], the inhibition at 1 µM is 23% at cKIT, 73% in test [1] and 0% on PDGFRb.

With `O[C@@H]1CCCC[C@H]1Nc1nc2ccc(Oc3cc(Cl)ncn3)cc2s1` [Compound 5, (1R,2R)-2-(6-(6-chloropyrimidin-4-yloxy)benzo[d]thiazol-2-ylamino) cyclohexanol], the inhibition at 1 µM at cKIT was 25%; in test [1] it was 41%; on PDGFRb, 0%.

For the molecule `O[C@@H]1CCCC[C@H]1Nc1nc2ccc(Oc3ccnc(Cl)n3)cc2s1` [Compound 6, (1R,2R)-2-(6-(2-chloropyrimidin-4-yloxy)benzo[d]thiazol-2-ylamino) cyclohexanol], the figures for the inhibition at 1 µM (at cKIT; in test [1]; at PDGFRb) were 19%, 18% and 0%, respectively.

For `c1nc(Oc2ccc3nc(NCC4CCCCC4)sc3c2)cc(N2CCOCC2)n1` [Compound 11, N-(cyclohexylmethyl)-6-(6-morpholinopyrimidin-4-yloxy)benzo[d]thiazol-2-amine], the inhibition at 1 µM on cKIT amounted to 19%; in test [1], 68%; at PDGFRb, 13%.

Regarding `CC(=O)NCCNc1cc(Oc2ccc3nc(NCC4CCCCC4)sc3c2)ncn1` [Compound 12, N-(2-(6-(2-(cyclohexylmethylamino)benzo[d]thiazol-6-yloxy)pyrimidin-4-ylamino)ethyl) acetamide], the inhibition at 1 µM on cKIT came out at 13%; in test [1] it was 80%; on PDGFRb, 37%.

`CC(=O)NCCNc1cc(Oc2ccc3nc(NCC4CCCCC4)sc3c2)nc(N)n1` [Compound 14, N-(2-(2-amino-6-(2-(cyclohexyl-methylamino)benzo[d]thiazol-6-yloxy)pyrimidin-4-ylamino)ethyl)acetamide]: the inhibition at 1 µM was determined as 23% at cKIT, 26% in test [1] and 0% on PDGFRb.

On to `c1cc(Oc2ccc3nc(NCC4CCCCC4)sc3c2)nc(N2CCOCC2)n1` [Compound 15, N-(cyclohexylmethyl)-6-(2-morpholinopyrimidin-4-yloxy)benzo[d]thiazol-2-amine], for which the inhibition at 1 µM at cKIT is 26%; in test [1], 94%; on PDGFRb it was 16%.

Regarding `CC(=O)NCCNc1nccc(Oc2ccc3nc(NCC4CCCCC4)sc3c2)n1` [Compound 16, N-(2-(4-(2-(cyclohexylmethylamino)benzo[d]thiazol-6-yloxy)pyrimidin-2-ylamino)ethyl) acetamide], the results for the inhibition at 1 µM (on cKIT; in test [1]; on PDGFRb) were 22%, 89% and 35%, respectively.

In the case of `C[C@H](Nc1nc2ccc(Oc3cc(Cl)ncn3)cc2s1)C1CCCCC1` [Compound 35, (S)-6-(6-chloropyrimidin-4-yloxy)-N-(1-cyclohexylethyl) benzo[d]thiazol-2-amine], the inhibition at 1 µM was determined as 20% at cKIT, 79% in test [1] and 2% on PDGFRb.
